# Laboratory results as given in patent publication US9132198B2, “Mitochondrial penetrating peptides as carriers for anticancer compounds” (priority 2011, dated 2015).
# Entries after “also recorded” stand apart in the source; their conditions may differ. Non-standard residues stand in square brackets, D forms with d. Residues, ends and D or L forms follow the SMILES beside them. *: point of attachment. Chlorambucil = O=C(CCCc1ccc(N(CCCl)CCCl)cc1)*; Cha = N[C@@H](CC1CCCCC1)C(=O)O
# What was measured:
# [1] = system: LY17 cells; assay: Analysis of toxicity, CCK-8 viability, leukemia panel: LY17; settings: read-out: LC50
# [2] = system: AML2 (OCI-AML2) cells; assay: Analysis of toxicity, CCK-8 viability, leukemia panel: AML2; settings: Homo sapiens, OCI-AML2, read-out: LC50
# [3] = system: K562 cells; assay: Analysis of toxicity, CCK-8 viability, leukemia panel: K562
# [4] = system: pBR322DNA; assay: Crosslinking of isolated DNA; assay type: biochemical; settings: 2-200 μM
# Procedure: Crosslinking of isolated pBR322DNA was determined from a modification of a published method.^30 Briefly, pBR322DNA was incubated with compounds at concentrations and times indicated in 25 mM triethanolamine (pH 7.2) and 1 mM EDTA. Reactions were terminated by the addition of 50 mM EDTA and 150 μg/ml excess short oligonucleotide DNA. Samples were denatured at 95° C. in denaturation buffer (30% DMSO, 1 mM EDTA, bromophenol blue, xylene cyanol, and 0.4% SDS) for 3 min and flash frozen in a dry ice/ethanol bath. Electrophoresis was carried out in 0.8% agarose in TAE buffer and stained post-run with ethidium bromide.
# [5] = system: 17.7 kb nuclear DNA segment (β-globin gene) in HL60 cells; assay: DNA lesion frequency by quantitative PCR, nuclear DNA; assay type: cell-based; settings: HL60, Cbl 150 μM or mt-Cbl 3 μM, 2 hr
# Procedure: (§1) A total of 5×10^6 HL60 cells were treated with Cbl (150 μM) or mt-Cbl (3 μM) for 2 hr. DNA was isolated from frozen cell pellets with the QIAGEN Genomic Tip and Genomic DNA Buffer Set Kit (QIAGEN) and quantified using the PicoGreen dye (Invitrogen). Quantitative amplification of the 8.9 kb mitochondrial segment and the 17.7 kb β-globin target sequence was performed using the GeneAmp XL PCR kit (Perkin-Elmer) as described previously^31. Lesion frequency at a given dose, D, was calculated as D=−In AD/AC, where AD is the amplification at the dose, and AC is the level of amplification in nondamaged controls.
# [6] = system: HeLa cells; assay: Mitochondrial membrane potential (JC-1, flow cytometry); assay type: cell-based; settings: 1 hour treatment
# Procedure: HeLa cells were seeded at 50,000 cells per well 24 hours prior to experiment. CLL patient samples, PBSCs and healthy donor B cells were seeded at 200,000 cells per well in triplicate in a 24-well plate in Iscove's media. Cells were then incubated with 2 μM of 5,5′,6,6′-tetrachloro-1,1′,3,3′-tetraethylbenzimidazolylcarbocyanine iodide (JC-1, Invitrogen, Carlsbad) for 20 minutes at 37° C. Each sample was then washed twice with 1 mL PBS and resuspended in 300 μL PBS prior to being read on a BD FACS Canto. Samples were excited at 488 nm and emission was collected at 526 nm (green) and 595 nm (red). To obtain the mitochondrial membrane potential (red/green), emission from the red channel was divided by emission from the green channel. For membrane depolarization studies, HeLa cells were treated with Cbl or MPP-Cbl for 1 hour in OPTI-MEM (Invitrogen, Carlsbad) prior to incubation with JC-1. Cells were washed with PBS, trypsinized and analyzed as above.
# [7] = system: M2 (OCI-M2) cells; assay: Analysis of toxicity, CCK-8 viability, leukemia panel: M2
# [8] = system: HL60 cells; assay: Quantitative real-time PCR array of DNA damage signaling genes; assay type: cell-based, human; settings: for DDIT3/GADD153 change in expression: vs untreated cells
# [9] = system: red blood cells (healthy donors); assay: Hemolysis assay; assay type: cell-based, human; settings: RBCs of healthy donors, at concentrations used (LC25, LC50)
# Procedure: Red blood cells obtained during Ficoll separation of healthy donor peripheral blood was used for this assay. Cells were washed with PBS until the supernatant was clear. Peptide solutions were made in Iscove's media and a 1:2 dilution was made across a 96-well plate. To each well, 2 μl, of red blood cells were added, mixed and then incubated for 1 hour at 37° C. with 5% CO2. For 100% lysis, 0.1% Triton X-100 was added to three wells and for 0% lysis, cells from three wells without peptide were used. Plates were spun at 1000×g for 10 min and 50 μL of supernatant was then transferred to a new plate, mixed with 50 μL of PBS and read at 415 nm.
# [10] = system: CLL patient cells; assay: Annexin V/Sytox Red viability of CLL patient cells versus healthy donor cells; assay type: cell-based, human; settings: LC25 and LC50; PBSCs and mononuclear cells of healthy donors as comparison
# [11] = system: DAUDI cells; assay: Analysis of toxicity, CCK-8 viability, leukemia panel: DAUDI; settings: Homo sapiens, read-out: LC50
# [12] = system: A2780 wildtype cells; assay: Annexin V apoptosis assay, A2780 wild-type; assay type: cell-based; settings: A2780 wild-type line
# [13] = system: U937 cells; assay: Analysis of toxicity, CCK-8 viability, leukemia panel: U937; settings: Homo sapiens, U-937, read-out: LC50
# [14] = system: HL60 cells; assay: Analysis of toxicity, CCK-8 viability, leukemia panel: HL60; settings: for LC25 dose: HL60 cells
# [15] = system: A2780 Cbl-resistant cells; assay: Annexin V apoptosis assay, A2780 Cbl-resistant; assay type: cell-based; settings: A2780 Cbl-resistant line
# [16] = system: HL60 cells; assay: Western blots of GADD45G pathway effector proteins (p38, JNK); assay type: cell-based; settings: HL60, immunoblotting
# Procedure: Leukemia cells were cultured as above and were washed twice with PBS prior to lysis (10 mM Tris, 200 mM NaCl, 1 mM EDTA (pH 7.4), 1 mM PMSF, 0.5% NP-40, 1% Triton X-100, 1× Protease Inhibitor Cocktail (Bioshop, Burlington, ON)) at 4° C., 30 min. Cells were then centrifuged at 1,200 rcf, 4° C., 5 min and protein levels were quantified using bicinchoninic acid (BCA) assay (Pierce, Rockford). 15 μg of total protein was diluted in 8× sample buffer and heated to 42° C. for 5 min prior to loading on 15% gel. Gels were run at 100 V for 1 h, and then proteins were transferred onto nitrocellulose membrane at 100 V for 40 min. Membranes were blocked with 5% skim milk for 1 hour and then probed with primary antibody according to manufacturer's instructions (1:500 BclXL antibody [Abcam, Cambridge, Mass.], 1:2000 β-actin antibody [Abcam], 1:1000 phospho INK [Abcam], 1:1000 phospho p38 [Abcam], 1:1000 GADD45G [Santa Cruz Biotechnology, Santa Cruz, Calif.], 1:1000 PPP1R15A [Santa Cruz Biotechnology], 1:1000 DNA Ligase III [Santa Cruz Biotechnology], 1:1000 p21 [Santa Cruz Biotechnology], and 1:1000 DDIT3 [Cell Signaling Technology, Beverly, Mass.]). Membranes were then washed and incubated with 1:5000 donkey anti-mouse or goat anti-rabbit IgG-HRP secondary antibody for 1 hr prior to ECL chemiluminescence detection (GE Amersham).
# [17] = system: 8.9 kb mitochondrial DNA segment in HL60 cells; assay: DNA lesion frequency by quantitative PCR, mitochondrial DNA; assay type: cell-based; settings: HL60, Cbl 150 μM or mt-Cbl 3 μM, 2 hr
# Procedure: as §1
# [18] = system: HeLa cells; assay: Analysis of toxicity, CCK-8 viability, HeLa; assay type: cell-based
# [19] = system: CLL patient cells; assay: Peptide uptake (flow cytometry); assay type: cell-based, human; settings: 5 μM thiazole orange-labeled peptide, 15 min; CLL cells vs PBSCs and mononuclear cells
# Procedure: CLL patient samples, PBSCs and healthy donor B cells were seeded at 200,000 cells per well in triplicate in a 24-well plate in Iscove's media. Cells were then incubated with 5 μM thiazole orange-labeled peptide for 15 min, washed with PBS and analyzed on FACSCanto (BD, Franklin Lakes) to determine relative intracellular peptide concentrations.
# [20] = immunogold TEM, mouse liver mitochondria
# Procedure: Mitochondria were isolated from fresh mouse liver as previously described^1. Functionality was confirmed using respirometry. The isolated organelles were used only when the levels of oxygen consumption in state III respiration (presence of ADP) were >4 fold greater than in state II respiration, indicating well-coupled mitochondria. Mitochondrial protein concentration was determined by BCA assay (Sigma). […] Cold PBS was added and mitochondria were pelleted by centrifugation. The pellet was fixed in 1% glutaraldehyde in PBS for 90 min at room temperature, washed with PBS, then fixed with 1% osmium tetroxide for 2 hr at 4° C. The pellets were dehydrated using graded ethanol, followed by stepwise infiltration with propylene oxide and Epon-Araldite resin. The pellets were cured in resin for 48 hr at 60° C. The blocks were sectioned to 60 nm and the sections adhered to nickel grids for 30 min at 60° C. The grids were floated on saturated aqueous sodium metaperiodate for an hour at room temperature, washed, then blocked with 1% BSA, and labeled with Anti-biotin (Jackson Immunolabs) followed by Protein A-gold (Aurion, 10 nm). The grids were rinsed with water and stained with 2% uranyl acetate for 5 minutes. To quantitate gold labeling, 200 gold particles (for more densely labeled samples) or 400 mitochondria (for less densely labeled samples) were counted for each counting event. […]
# [21] = system: HeLa cells; assay: Analysis of mitochondrial superoxide levels (MitoSOX, flow cytometry); assay type: cell-based; settings: 1 hour treatment
# Procedure: HeLa cells were plated at 100,000 per well of a 24-well plate 24 hours prior to experiment and treated with Cbl or MPP-Cbl in OPTI-MEM (Invitrogen, Carlsbad) for 1 hour. Media was removed and cells were incubated with MitoSox (Invitrogen, Carlsbad) according to manufacturer's instructions. Cells were washed with PBS, trypsinized and analyzed via flow cytometry with FACSCanto (BD, Franklin Lakes).
# [22] = Colorimetric alkylation assay; assay type: biochemical; settings: absorbance of 4-NBP upon alkylation
# Procedure: Alkylation was tested using 4-(4-Nitrobenzyl)pyridine (4-NBP) (Thomas, et al., 1992). Briefly, compound (200-450 μM) was incubated with 4-NBP (0.7% w/vol) in a buffer containing 85 mM triethanolamine (pH 7.2) and 43% acetone. Reactions were incubated at 37° C. for 30-120 min. Reactions were terminated by freezing in a dry ice/ethanol bath. To develop samples, […] ethyl acetate and 25 μl 5N NaOH were added followed by vortexing. Absorbance of organic ethyl acetate was read at 540 nm.
# [23] = HL60, LC25 dose, greater with mt-Cbl relative to Cbl alone
molecule,measurement,setting,value
"O=C(O)CCCc1ccc(N(CCCl)CCCl)cc1 [Cbl, chlorambucil]",CC50,[1],55 ± 7 µM
same,CC50,[2],28 ± 3 µM
same,CC50,"[3]; Homo sapiens, K562, read-out: LC50",306 ± 26 µM
same,resistance to Cbl relative to rest of the cohort,[3]; K562 cells,approximately 10 fold
same,DNA crosslink formation,[4],concentration-dependent crosslink formation
same,damage of nuclear DNA,[5],primarily damaged nuclear DNA
same,depolarization of mitochondrial membrane,[6],not with Cbl
same,CC50,"[7]; OCI-M2, read-out: LC50",311 ± 24 µM
same,resistance to Cbl relative to rest of the cohort,[7]; OCI-M2 cells,approximately 10 fold
same,p21 expression,"[8]; HL60, LC25 dose",overexpressed
same,DDIT3/GADD153 change in expression,"[8]; HL60, LC25 dose",5 fold
same,hemolysis,[9],minimal
same,selective toxicity to CLL patient cells versus healthy donor cells,[10],more selectively toxic to CLL patient samples cells
same,CC50,[11],27 ± 7 µM
same,induction of cell death,[12],able to induce cell death
same,CC50,[13],34 ± 5 µM
same,LC25 dose,[14],17 µM
same,EC50,"[14]; Homo sapiens, HL-60",34 µM
same,CC50,"[14]; Homo sapiens, HL-60, read-out: LC50",34 ± 6 µM
same,toxicity,[15]; even at 100 μM,insignificant
same,activation of p38 or JNK pathways,[16],activating p38
same,damage of mitochondrial DNA,[17],very few mitochondrial lesions
Ac-FxrFxrFxr [MPP],toxicity,[18]; concentration range tested,did not show appreciable toxicity
TO-FxrFxrFxr [to-MPP],peptide uptake,[19],higher levels of peptide uptake in CLL cells
Biotin-FxrFxrFxr [Biotin-MPP],localization within isolated mitochondria,[20],predominantly matrix localization
"CC(=O)N[C@@H](CC1CCCCC1)C(=O)N[C@H](CCCNC(=N)N)C(=O)N[C@@H](CC1CCCCC1)C(=O)N[C@H](CCCNC(=N)N)C(=O)N[C@@H](CC1CCCCC1)C(=O)N[C@H](CCCNC(=N)N)C(=O)N[C@H](CCCCNC(=O)CCCc1ccc(N(CCCl)CCCl)cc1)C(N)=O [MPP-Cbl, Ac-FxrFxrFxrk-Cbl] (Ac-[Cha][dR][Cha][dR][Cha][dR][dK](Chlorambucil)-NH2)",increase of mitochondrial superoxide levels,[21],noted upon MPP-Cbl treatment
same,DNA crosslink formation,[4],concentration-dependent crosslink formation
same,damage of nuclear DNA,[5],minimal effect on the nuclear genome
same,depolarization of mitochondrial membrane,[6],noted upon MPP-Cbl treatment
same,p21 expression,"[8]; HL60, LC25 dose",overexpressed
same,DDIT3/GADD153 change in expression,"[8]; HL60, LC25 dose",no change
same,GADD45G upregulation,[8]; [23],15 fold
same,PPP1R15A/GADD34 upregulation,[8]; [23],4 fold
same,Ligase III increase in expression,"[8]; HL60, LC50 dose, 1 hr",this was detected
same,hemolysis,[9],nominal hemolysis levels; also recorded: minimal
same,selective toxicity to CLL patient cells versus healthy donor cells,[10],more selectively toxic to CLL patient samples cells
same,concentration inducing cell death,[12],9 µM
same,reduction of alkylating ability compared to Cbl alone,[22],approximately two fold
same,LC25 dose,[14],3 µM
same,concentration inducing cell death,[15]; value comparable to wild-type,9 µM
same,activation of p38 or JNK pathways,[16],activating JNK
same,damage of mitochondrial DNA,[17],significant reduction of mitochondrial DNA amplification
same,increase in potency compared to Cbl,"[18]; cell viability assay, 24 hours",100 fold
